Assay results taken from patent US12233041B2, “Disulfonate stilbenes for use in the treatment of proliferative diseases” (UNIVERSITÉ DE NANTES, priority 2018, dated 2025).
Like-named read-outs stand apart in the source and are kept apart here.

What was measured:
Rad51 [1] = target: T1, Rad51 (Homo sapiens, UniProt Q06609); assay: RAD51 nucleofilament formation by Bio-Layer Interferometry (BLItz), binding of Rad51 to ssDNA; settings: for activity on nucleofilament formation compared with reference molecule BPQ / formation of RAD51 protein nucleofilament (relative binding of RAD51 protein with single-stranded DNA): FIG. 2; for formation of RAD51 protein nucleofilament (relative binding of RAD51 protein with single-stranded DNA): increasing doses of inhibitors; for activity on nucleofilament formation compared with reference molecule DIDS: low dose (5 μM)
T1 sequence (Q06609 1-339): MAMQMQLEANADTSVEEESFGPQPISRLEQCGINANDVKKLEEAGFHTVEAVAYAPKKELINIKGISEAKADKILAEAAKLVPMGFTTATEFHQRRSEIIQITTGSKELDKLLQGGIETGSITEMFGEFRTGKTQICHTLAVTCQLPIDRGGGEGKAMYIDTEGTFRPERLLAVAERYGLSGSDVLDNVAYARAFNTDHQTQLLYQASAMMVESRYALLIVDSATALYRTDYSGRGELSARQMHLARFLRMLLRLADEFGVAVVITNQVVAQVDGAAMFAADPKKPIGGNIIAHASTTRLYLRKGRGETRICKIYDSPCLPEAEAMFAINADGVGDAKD
Experimental: The binding of Rad51 to ssDNA was monitored and quantified by Bio-Layer Interferometry technology using the BLItz platform (FortéBio Inc.). The procedure includes four steps: (1) the baseline in buffer A containing 1×PBS, 10 mM MgCl2 and 0.0075% Tween20 was recorded for 20 s; (2) loading and binding of Rad51 were measured for 40 s using 1.5 μM Rad51 and 1 mM ATP in buffer A; (3) the dissociation of Rad51 from ssDNA was recorded for 20 s in buffer A; (4) the ssDNA biosensor was regenerated using baths of 50 mM NaOH. Except for the step 2, which used 4 μL drop of the protein sample, the steps 1, 3 and 4 used 250 μL solutions in 0.5 mL tube. The measurement parameters were as follows: room temperature measurement and stirring speed of 2200 rpm. To investigate the effect of CSB and analogs to the ssDNA binding of Rad51, the molecule was included in the protein sample of the step 2 at the indicated concentrations and incubated for 5 min before loading on the biosensor. (Normand, A. et al., “Identification and characterization of human Rad51 inhibitors by screening of an existing drug library.”, Biochemical Pharmacology, October 2014, Vol. 91, No. 3, pp. 293-300).
A test based on interferometry (Blitz®, Fortebio) allows the measure of the association kinetics of RAD51 protein with a single-stranded DNA immobilized on a biosensor support in the presence or absence of an inhibitor. The effect of compounds B-1, B-2, B-3, BPQ and X-4 on RAD51 nucleofilament formation has been evaluated in presence of increasing doses of inhibitors. The results are presented on FIG. 2.

Rad51 [2] = target: T1, Rad51; assay: DNA invasion by D-loop assay (strand exchange); format: biochemical
Experimental: Labeled 100-ssDNA** (1 μM) was incubated with 0.5 μM Rad51 in presence or absence of the indicated amounts of the corresponding molecule in 10 μL of standard reaction buffer containing 20 mM Tris-HCl (pH 8), 1 mM ATP, 1 mM DTT, 1 mM CaCl2) at 37° C. for 20 min. The reaction was initiated by adding supercoiled pPB4.3 DNA (200 μM in bp). After incubation of 30 min at 37° C., the reactions were stopped and deproteinized by a stop solution (10 mM Tris-HCl pH 8, 10 mM MgCl2, 1% SDS, and 1 mg/mL proteinase K. The reaction mixtures were further incubated for 15 min at 37° C. After adding 5-fold loading dye (0.05% bromophenol blue, 8% glycerol, 1 mM EDTA), the reaction products were separated by electrophoresis on 1% agarose gel. The electrophoresis was carried out in 0.5×TAE buffer (20 mM Tris, 10 mM acetic acid and 1 mM EDTA) at 100 V for 2 h. The labeled products (100-ssDNA** and D-loop) were visualized and quantified by the detection of the IRD-700 dye with the 700 nm infrared fluorescent detection channel of an Odyssey Infrared Imager (LI-COR) (Normand, A. et al., Biochemical Pharmacology, October 2014, Vol. 91, No. 3, pp. 293-300).
The “D-loop” in vitro test allows the quantification of the formation of the strand exchange structure (D-loop) and thus the determination of the inhibitory power of a molecule during the strand exchange step of the recombinase mechanism. IC50 measuring the RAD51 protein inhibition in presence of compounds A-1 to A-5, […] and DIDS are then calculated.

HsRad51 = target: T2, HsRad51 (Homo sapiens, UniProt Q06609); assay: RAD51 oligomerization by SDS-PAGE gel after crosslink; format: biochemical; settings: 2.5 μM HsRad51, disuccinimidyl suberate crosslink, SDS-PAGE/Western blot; FIG. 1
T2 sequence (Q06609 1-339): T1 sequence (Q06609 1-339)
Experimental: The reaction was performed at room temperature. 2.5 μm HsRad51 was incubated with the indicated concentrations of tested compounds for 10 min in a buffer containing 20 mm sodium phosphate, 50 mm NaCl, 1 mm MgCl 2, and 1 mm ATP. The cross-linking reactions were initiated by the addition of disuccinimidyl suberate (50 μm) and allowed to proceed for 30 min. Reactions were quenched by the addition of Tris-HCl (pH 7.5, final concentration: 50 mm) followed by subsequent incubations for 15 min. The products were then separated by 12% SDS polyacrylamide gel electrophoresis and detected by Western blot with mouse monoclonal anti-Rad51 antibody (NeoMarkers) and anti-mouse Alexa-Fluor 700-conjugated secondary antibody (Molecular Probes, Eugene, OR). The cross-linked dimer was quantified by an Odyssey Infrared Imaging System scanner (Li-Cor Biosciences) (Martinez, S. F. et al., “Targeting human Rad51 by specific DNA aptamers induces inhibition of homologous recombination”, Biochimie, December 2010, Vol. 92, No. 12, pp. 1832-1838).
The SDS-PAGE electrophoresis after crosslink maintains and immobilizes the RAD51 protein complexes and thus allows visualization of the degree of oligomerization (polymer formation) of the RAD51 protein. The effect of RAD51 protein inhibitors B-1, B-2, B-3, DIDS and X-4 on this key step of RAD51 protein recombinase activity has thus been evaluated. The results are presented on FIG. 1.

DU-145 cell line = assay: Clonogenicity test, sensitizing effect with an antineoplastic drug; format: cell-based; settings: Homo sapiens; DU-145, camptothecin alone; read-out: IC50 (clonogenic survival, camptothecin)
Experimental: Clonogenicity tests are carried out against several model cell lines derived from cancer including prostate cancer (DU-145). Cells are exposed to an anti-cancer agent targeting DNA (cisplatin or camptothecin). Damaged cells are counted and seeded in the presence or in the absence of B-2 in triplicate culture plates. After about two weeks of incubation at 37° C. the number of clones formed is counted. Each cell capable of repairing its lesions will then form a clone. After counting, the percentage of survival will be calculated relative to the control condition for which it is considered that there is 100% survival.
The main interest of RAD51 protein inhibitors is the sensitization of chemo-resistant or radio-resistant cancerous cell lines. Clonogenicity evaluation was carried out on the DU-145 cell line treated with cisplatin treatment in the presence or in the absence of disulfonate stilbene B-2 (RAD51 protein inhibitor).
DU-145 cell line was treated with camptothecin in the presence or in the absence of disulfonate stilbene B-2 (RAD51 protein inhibitor) and the clonogenic cell survival was determined.

[3] = system: recombinant fibroblast line RG37; assay: Intracellular homologous recombination (HR), GFP reconstitution after I-SceI cleavage, flow cytometry; format: cell-based; settings: RG37 cells, 72 h after pCMV-HA-I-SceI transfection; FIG. 3
Experimental: After transfection with the pCMV-HA-I-SceI plasmid and incubation for 72 h, the cells were collected in PBS and 50 mM EDTA, pelleted and fixed with 2% paraformaledhyde for 20 min. The percentage of GFP-expressing cells was scored by FACS analysis using Cytoflex (Beckman Coulter). At least 3 independent experiments were performed, and HA-I-SceI expression was verified each time by Western blot with rabbit anti-HA antibody (Abcam).
The recombinant fibroblast line RG37 is used to confirm in vitro results (Examples 2-5) in the cellular context. This cellar line comprises two non-functional GFP cassettes, one of which has a unique cleavage site inducible by transfection of a restriction enzyme. After cleavage, which is equivalent to a double-strand break (DSB) of the DNA, the homologous recombination (HR) leads to the reconstitution of a complete GFP cassette thus making the cell fluorescent. The rate of intracellular HR is then determined by measurement in flow cytometry so as to measure the level of HR in cells after treatment with compounds C-3, B-2 and X-2.

[4] = 0.5 μM Rad51, 1 μM 100-ssDNA, 37° C., read-out: IC50 (RAD51 protein inhibition, D-loop formation)

SMILES	formation of RAD51 protein nucleofilament (relative binding of RAD51 protein with single-stranded DNA) (Rad51 [1])	IC50 (Rad51 [2]; [4])	oligomerization state of RAD51 protein (HsRad51)	also measured
[N-]=[N+]=Nc1ccc(/C=C/c2ccc(N=[N+]=[N-])cc2S(=O)(=O)[O-])c(S(=O)(=O)[O-])c1.[Na+].[Na+] [B-1, Sodium (E)-6,6′-(ethene-1,2-diyl)bis(3-azidobenzenesulfonate)]	inhibit	21 µM	significant reduction	activity on nucleofilament formation compared with reference molecule BPQ (Rad51 [1]): comparable to or even better; activity on nucleofilament formation compared with reference molecule DIDS (Rad51 [1]): comparable
Cc1ccc(S(=O)(=O)Nc2ccc(/C=C/c3ccc(NS(=O)(=O)c4ccc(C)cc4)cc3S(=O)(=O)O)c(S(=O)(=O)O)c2)cc1 [S-2, Sodium (E)-6,6′-(ethene-1,2-diyl)bis(3-((4-methylphenyl)sulfonamido)benzenesulfonate)]		29 µM		
O=C(Nc1ccc(/C=C/c2ccc(NC(=O)c3ccccc3)cc2S(=O)(=O)O)c(S(=O)(=O)O)c1)c1ccccc1 [A-3, Sodium (E)-6,6′-(ethene-1,2-diyl)bis(3-benzamidobenzenesulfonate)]		> 10 µM		
O=S(=O)(O)c1cc(NS(=O)(=O)c2ccccc2)ccc1/C=C/c1ccc(NS(=O)(=O)c2ccccc2)cc1S(=O)(=O)O [S-1, Sodium (E)-6,6′-(ethene-1,2-diyl)bis(3-(phenylsulfonamido)benzenesulfonate)]		41 µM		
O=S(=O)([O-])c1cc(I)ccc1/C=C/c1ccc(I)cc1S(=O)(=O)[O-].[K+].[K+] [B-3, Potassium (E)-6,6′-(ethene-1,2-diyl)bis(3-iodobenzenesulfonate)]	inhibit	34 µM	significant reduction	activity on nucleofilament formation compared with reference molecule BPQ (Rad51 [1]): comparable to or even better; activity on nucleofilament formation compared with reference molecule DIDS (Rad51 [1]): comparable
[N-]=[N+]=Nc1ccc(/C=C/c2ccc(N=[N+]=[N-])cc2)cc1 [X-4, (E)-1,2-bis(4-azidophenyl)ethene, reference compound]	no inhibitory effect whatsoever		no effect	
CC[C@@]1(O)C(=O)OCc2c1cc1n(c2=O)Cc2cc3ccccc3nc2-1 [camptothecin, reference compound]				IC50 (DU-145 cell line): 0.098 µM
COc1ccc(C(=O)Nc2ccc(/C=C/c3ccc(NC(=O)c4ccc(OC)cc4)cc3S(=O)(=O)O)c(S(=O)(=O)O)c2)cc1 [A-4, Sodium (E)-6,6′-(ethene-1,2-diyl)bis(3-(4-methoxybenzamido)benzenesulfonate)]		6 µM		
O=C(Nc1ccc(/C=C/c2ccc(NC(=O)Oc3ccccc3)cc2S(=O)(=O)[O-])c(S(=O)(=O)[O-])c1)Oc1ccccc1.[Na+].[Na+] [C-3, Sodium (E)-6,6′-(ethene-1,2-diyl)bis(3-((phenoxycarbonyl)amino)benzenesulfonate)]				IC50 (Rad51 [2]): 2 µM; intracellular HR inhibition [3]: significant inhibitory effect
O=C(Nc1ccc(/C=C/c2ccc(NC(=O)Oc3ccccc3)cc2)cc1)Oc1ccccc1 [X-2, Diphenyl (ethene-1,2-diylbis(4,1-phenylene))(E)-dicarbamate, reference compound]				intracellular HR inhibition [3]: does not lead to any inhibition
